# Measured values: patent US20140213513A1 (Sanofi, priority 2012, published 2014)
# *1 amine or outer side, *2 acyl side, *3 side chain or, on linkers, in order; H or OH if unused. Where a SMILES comes first, the peptide text is derived from it. Side-chain parts run from the residue outwards. [ ]: non-standard residue; d: D form. The star is where a group is joined. γGlu = O=C(O)[C@H](CCC(=O)[*:2])N[*:1]; Stearoyl = CCCCCCCCCCCCCCCCCC(=O)*; Palmitoyl = CCCCCCCCCCCCCCCC(=O)*; Aib = CC(C)(N)C(=O)O
# Experiments:
# Format in all cases: cell-based
# Settings in all cases: Table 7; cAMP formation
# [1] = biological target: T1, human GLP-1 receptor (hGLP-1 R) (Homo sapiens, UniProt P43220); experiment: cAMP response of HEK-293 cells stably expressing human GLP-1 receptor (HTRF)
# T1 construct: expressed in transfected cells
# How it was run: (§1)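 After near-confluent growth in DMEM with 10% FBS, cells were washed in Ca/Mg-free PBS, lifted with accutase and diluted to 400000 cells/ml in IBMX (2 mM)-containing HEPES-buffered HBSS with 0.1% BSA. Compounds were applied for 30 minutes at room temperature before homogeneous time-resolved fluorescence quantitation of cAMP.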
# [2] = biological target: T2, human glucagon receptor (hGLUC R) (Homo sapiens, UniProt P47871); experiment: cAMP response of HEK-293 cells stably expressing human glucagon receptor (HTRF)
# T2 construct: expressed in transfected cells
# How it was run: as §1
# [3] = biological target: T3, human GIP receptor (hGIP R) (Homo sapiens, UniProt P48546); experiment: cAMP response of HEK-293 cells stably expressing human GIP receptor (HTRF)
# T3 construct: expressed in transfected cells
# T3 sequence (P48546 22-466): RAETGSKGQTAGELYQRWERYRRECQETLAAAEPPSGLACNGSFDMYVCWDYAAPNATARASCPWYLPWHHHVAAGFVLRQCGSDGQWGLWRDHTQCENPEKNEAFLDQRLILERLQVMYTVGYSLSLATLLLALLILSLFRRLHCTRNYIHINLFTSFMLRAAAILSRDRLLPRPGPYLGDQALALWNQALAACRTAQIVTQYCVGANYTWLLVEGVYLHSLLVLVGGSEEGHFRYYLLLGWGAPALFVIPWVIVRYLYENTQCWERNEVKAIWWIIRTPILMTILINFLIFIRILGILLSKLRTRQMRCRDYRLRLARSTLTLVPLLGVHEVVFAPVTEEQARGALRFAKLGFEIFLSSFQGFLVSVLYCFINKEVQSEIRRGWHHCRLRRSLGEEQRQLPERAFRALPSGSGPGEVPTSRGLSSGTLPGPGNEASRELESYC
# How it was run: as §1
# T1 sequence (P43220 24-463): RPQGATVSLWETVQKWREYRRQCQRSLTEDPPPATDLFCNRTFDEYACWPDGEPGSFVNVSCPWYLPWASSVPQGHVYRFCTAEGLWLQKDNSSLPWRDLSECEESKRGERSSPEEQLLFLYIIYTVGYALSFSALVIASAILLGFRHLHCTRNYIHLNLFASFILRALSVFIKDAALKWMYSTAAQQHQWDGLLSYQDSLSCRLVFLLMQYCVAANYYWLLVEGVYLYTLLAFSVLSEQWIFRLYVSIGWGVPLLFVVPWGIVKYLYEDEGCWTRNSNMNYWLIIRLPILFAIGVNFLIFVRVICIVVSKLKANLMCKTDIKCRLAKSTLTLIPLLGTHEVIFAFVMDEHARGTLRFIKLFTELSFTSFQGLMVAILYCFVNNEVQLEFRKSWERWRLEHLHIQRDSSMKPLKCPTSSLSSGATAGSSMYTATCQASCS
# T2 sequence (P47871 26-477): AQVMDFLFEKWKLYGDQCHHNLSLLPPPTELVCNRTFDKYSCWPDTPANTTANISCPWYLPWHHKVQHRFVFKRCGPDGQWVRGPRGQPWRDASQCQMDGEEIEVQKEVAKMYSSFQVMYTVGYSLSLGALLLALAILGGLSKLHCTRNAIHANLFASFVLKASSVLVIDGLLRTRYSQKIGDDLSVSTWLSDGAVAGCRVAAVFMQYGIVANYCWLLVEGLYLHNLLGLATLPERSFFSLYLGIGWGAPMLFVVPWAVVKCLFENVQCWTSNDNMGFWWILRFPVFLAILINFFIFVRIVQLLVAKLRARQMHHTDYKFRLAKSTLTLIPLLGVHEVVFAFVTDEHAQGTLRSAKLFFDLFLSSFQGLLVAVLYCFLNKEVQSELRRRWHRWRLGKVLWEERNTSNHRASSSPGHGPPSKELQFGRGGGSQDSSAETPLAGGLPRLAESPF
SMILES,EC50 [1] [nM],EC50 [2] [nM],EC50 [3] [nM]
"CCCCCCCCCCCCCCCCCC(=O)N[C@@H](CCC(=O)NCCCC[C@H](NC(=O)[C@H](CCC(N)=O)NC(=O)[C@@H](NC(=O)[C@H](CO)NC(=O)[C@H](CC(C)C)NC(=O)[C@H](CC(=O)O)NC(=O)[C@H](CO)NC(=O)[C@@H](NC(=O)[C@H](Cc1ccccc1)NC(=O)[C@@H](NC(=O)CNC(=O)[C@H](Cc1c[nH]cn1)NC(=O)C(C)(C)NC(=O)[C@@H](N)Cc1ccc(O)cc1)[C@@H](C)O)[C@@H](C)O)[C@@H](C)CC)C(=O)N[C@@H](CCC(=O)O)C(=O)N[C@@H](CCCCN)C(=O)N[C@@H](CCCNC(=N)N)C(=O)N[C@@H](C)C(=O)N[C@@H](C)C(=O)N[C@@H](Cc1ccccc1)C(=O)N[C@@H](CCC(=O)O)C(=O)N[C@@H](Cc1ccccc1)C(=O)N[C@H](C(=O)N[C@@H](CCC(=O)O)C(=O)N[C@@H](Cc1c[nH]c2ccccc12)C(=O)N[C@@H](CC(C)C)C(=O)N[C@@H](CCCCN)C(=O)N[C@@H](CC(N)=O)C(=O)N[C@H](C(=O)NCC(=O)N1CCC[C@H]1C(=O)N[C@@H](CO)C(=O)N[C@@H](CO)C(=O)NCC(=O)N[C@@H](C)C(=O)N1CCC[C@H]1C(=O)N1CCC[C@H]1C(=O)N1CCC[C@H]1C(=O)N[C@@H](CO)C(N)=O)[C@@H](C)O)[C@@H](C)CC)C(=O)O [SEQ ID NO: 32, Y-Aib-H-G-T-F-T-S-D-L-S-I-Q-K(yE-x70)-EKRAAFEFIEWLKNTGPSSGAPPPS-NH2] (H-Y[Aib]HGTFTSDLSIQK([γGlu-Stearoyl])EKRAAFEFIEWLKNTGPSSGAPPPS-NH2)",0.0417,0.0192,0.0335
"CCCCCCCCCCCCCCCC(=O)N[C@@H](CCC(=O)NCCCC[C@H](NC(=O)[C@H](CCC(N)=O)NC(=O)[C@@H](NC(=O)[C@H](CO)NC(=O)[C@H](CC(C)C)NC(=O)[C@H](CC(=O)O)NC(=O)[C@H](CO)NC(=O)[C@@H](NC(=O)[C@H](Cc1ccccc1)NC(=O)[C@@H](NC(=O)CNC(=O)[C@H](CCC(N)=O)NC(=O)C(C)(C)NC(=O)[C@@H](N)Cc1ccc(O)cc1)[C@@H](C)O)[C@@H](C)O)[C@@H](C)CC)C(=O)N[C@@H](CCC(=O)O)C(=O)N[C@@H](CCCCN)C(=O)N[C@@H](CCCNC(=N)N)C(=O)N[C@@H](C)C(=O)N[C@@H](C)C(=O)N[C@@H](CC(C)C)C(=O)N[C@@H](CCC(=O)O)C(=O)N[C@@H](Cc1ccccc1)C(=O)N[C@H](C(=O)N[C@@H](CCC(=O)O)C(=O)N[C@@H](Cc1c[nH]c2ccccc12)C(=O)N[C@@H](CC(C)C)C(=O)N[C@@H](CCCCN)C(=O)N[C@@H](CC(N)=O)C(=O)N[C@H](C(=O)NCC(=O)N1CCC[C@H]1C(=O)N[C@@H](CO)C(=O)N[C@@H](CO)C(=O)NCC(=O)N[C@@H](C)C(=O)N1CCC[C@H]1C(=O)N1CCC[C@H]1C(=O)N1CCC[C@H]1C(=O)N[C@@H](CO)C(N)=O)[C@@H](C)O)[C@@H](C)CC)C(=O)O [SEQ ID NO: 33, Y-Aib-Q-G-T-F-T-S-D-L-S-I-Q-K(yE-x53)-EKRAALEFIEWLKNTGPSSGAPPPS-NH2] (H-Y[Aib]QGTFTSDLSIQK([γGlu-Palmitoyl])EKRAALEFIEWLKNTGPSSGAPPPS-NH2)",0.0081,0.109,0.0882
"CCCCCCCCCCCCCCCC(=O)N[C@@H](CCC(=O)NCCCC[C@H](NC(=O)[C@H](CCC(N)=O)NC(=O)[C@@H](NC(=O)[C@H](CO)NC(=O)[C@H](CC(C)C)NC(=O)[C@H](CC(=O)O)NC(=O)[C@H](CO)NC(=O)[C@@H](NC(=O)[C@H](Cc1ccccc1)NC(=O)[C@@H](NC(=O)CNC(=O)[C@H](CCC(N)=O)NC(=O)C(C)(C)NC(=O)[C@@H](N)Cc1ccc(O)cc1)[C@@H](C)O)[C@@H](C)O)[C@@H](C)CC)C(=O)N[C@@H](CC(=O)O)C(=O)N[C@@H](CO)C(=O)N[C@@H](CCCNC(=N)N)C(=O)N[C@@H](C)C(=O)N[C@@H](C)C(=O)N[C@@H](CCC(N)=O)C(=O)N[C@@H](CC(=O)O)C(=O)N[C@@H](Cc1ccccc1)C(=O)N[C@H](C(=O)N[C@@H](CCC(=O)O)C(=O)N[C@@H](Cc1c[nH]c2ccccc12)C(=O)N[C@@H](CC(C)C)C(=O)N[C@@H](CCCCN)C(=O)N[C@@H](CCCNC(=N)N)C(=O)NCC(=O)NCC(=O)N1CCC[C@H]1C(=O)N[C@@H](CO)C(=O)N[C@@H](CO)C(=O)NCC(=O)N[C@@H](C)C(=O)N1CCC[C@H]1C(=O)N1CCC[C@H]1C(=O)N1CCC[C@H]1C(=O)N[C@@H](CO)C(N)=O)[C@@H](C)CC)C(=O)O [SEQ ID NO: 34, Y-Aib-Q-G-T-F-T-S-D-L-S-I-Q-K(yE-x53)-DSRAAQDFIEWLKRGGPSSGAPPPS-NH2] (H-Y[Aib]QGTFTSDLSIQK([γGlu-Palmitoyl])DSRAAQDFIEWLKRGGPSSGAPPPS-NH2)",0.0074,0.222,0.0513
"CCCCCCCCCCCCCCCC(=O)N[C@@H](CCC(=O)NCCCC[C@H](NC(=O)[C@H](CCC(N)=O)NC(=O)[C@@H](NC(=O)[C@H](CO)NC(=O)[C@H](CC(C)C)NC(=O)[C@H](CC(=O)O)NC(=O)[C@H](CO)NC(=O)[C@@H](NC(=O)[C@H](Cc1ccccc1)NC(=O)[C@@H](NC(=O)CNC(=O)[C@H](CCC(N)=O)NC(=O)C(C)(C)NC(=O)[C@@H](N)Cc1ccc(O)cc1)[C@@H](C)O)[C@@H](C)O)[C@@H](C)CC)C(=O)N[C@@H](CC(=O)O)C(=O)N[C@@H](CCC(=O)O)C(=O)N[C@@H](CCCNC(=N)N)C(=O)N[C@@H](C)C(=O)N[C@@H](C)C(=O)N[C@@H](CCCCN)C(=O)N[C@@H](CC(=O)O)C(=O)N[C@@H](Cc1ccccc1)C(=O)N[C@H](C(=O)N[C@@H](CCC(=O)O)C(=O)N[C@@H](Cc1c[nH]c2ccccc12)C(=O)N[C@@H](CC(C)C)C(=O)N[C@@H](CCCCN)C(=O)N[C@@H](C)C(=O)NCC(=O)NCC(=O)N1CCC[C@H]1C(=O)N[C@@H](CO)C(=O)N[C@@H](CO)C(=O)NCC(=O)N[C@@H](C)C(=O)N1CCC[C@H]1C(=O)N1CCC[C@H]1C(=O)N1CCC[C@H]1C(=O)N[C@@H](CO)C(N)=O)[C@@H](C)CC)C(=O)O [SEQ ID NO: 35, Y-Aib-Q-G-T-F-T-S-D-L-S-I-Q-K(yE-x53)-DERAAKDFIEWLKAGGPSSGAPPPS-NH2] (H-Y[Aib]QGTFTSDLSIQK([γGlu-Palmitoyl])DERAAKDFIEWLKAGGPSSGAPPPS-NH2)",0.0035,0.123,0.0182
